Source: publication PMC5218480 (PLoS ONE, 2017)

System: MV-4-11 cells
Test: Gene expression microarray analysis (Affymetrix PrimeView) and GSEA
Type: cell-based, human
Set-up: RFU PODN (11730768_x_at) / Fold change /veh PODN (11730768_x_at) / RFU LINC00158 (11744669_a_at) / Fold change /veh LINC00158 (11744669_a_at) / RFU DUSP10 (11751237_a_at) / Fold change /veh DUSP10 (11751237_a_at) / RFU ID3 (11757404_x_at) / Fold change /veh ID3 (11757404_x_at) / RFU PLEKHG5 (11737974_s_at) / Fold change /veh PLEKHG5 (11737974_s_at) / RFU LRRC4B (11730491_at) / Fold change /veh LRRC4B (11730491_at) / RFU GIMAP4 (11747438_a_at) / Fold change /veh GIMAP4 (11747438_a_at) / RFU KRT8 (11758183_x_at) / Fold change /veh KRT8 (11758183_x_at) / RFU CNN1 (11734310_a_at) / Fold change /veh CNN1 (11734310_a_at) / RFU VPS37D (11726825_at) / Fold change /veh VPS37D (11726825_at) / RFU C10orf10 (11716522_x_at) / Fold change /veh C10orf10 (11716522_x_at) / RFU KIR2DL2 /// KIR2DL4 /// KIR2DL5A /// KIR2DL5B /// KIR2DS1 /// KIR2DS2 /// KIR2DS3 /// KIR2DS4 /// KIR3DL3 /// KIR3DL3 /// KIR3DS1 (11738374_at) / Fold change /veh KIR2DL2 /// KIR2DL4 /// KIR2DL5A /// KIR2DL5B /// KIR2DS1 /// KIR2DS2 /// KIR2DS3 /// KIR2DS4 /// KIR3DL3 /// KIR3DL3 /// KIR3DS1 (11738374_at) / RFU C1QL1 (11718748_at) / Fold change /veh C1QL1 (11718748_at) / RFU TMPRSS4 (11747572_a_at) / Fold change /veh TMPRSS4 (11747572_a_at) / RFU HAMP (11756126_x_at) / Fold change /veh HAMP (11756126_x_at) / RFU RNFT2 (11725882_a_at) / Fold change /veh RNFT2 (11725882_a_at) / RFU NR4A2 (11747474_a_at) / Fold change /veh NR4A2 (11747474_a_at) / RFU ABCC12 (11746883_a_at) / Fold change /veh ABCC12 (11746883_a_at) / RFU TMEM136 (11760407_x_at) / Fold change /veh TMEM136 (11760407_x_at) / RFU CLDN22 /// WWC2 (11732394_at) / Fold change /veh CLDN22 /// WWC2 (11732394_at) / RFU HLA-DPB1 (11760878_x_at) / Fold change /veh HLA-DPB1 (11760878_x_at) / RFU SPINT1 (11716480_a_at) / Fold change /veh SPINT1 (11716480_a_at) / RFU GAP43 (11754022_s_at) / Fold change /veh GAP43 (11754022_s_at) / RFU A4GNT (11735810_at) / Fold change /veh A4GNT (11735810_at) / RFU PRB3 (11715151_x_at) / Fold change /veh PRB3 (11715151_x_at) / RFU TUBB4B (11761932_at) / Fold change /veh TUBB4B (11761932_at) / RFU CAPN14 (11732068_a_at) / Fold change /veh CAPN14 (11732068_a_at) / RFU TMCC2 (11721928_a_at) / Fold change /veh TMCC2 (11721928_a_at) / RFU IRGQ (11745062_a_at) / Fold change /veh IRGQ (11745062_a_at) / RFU FAM174B (11720279_a_at) / Fold change /veh FAM174B (11720279_a_at) / RFU TMPRSS4 (11748680_a_at) / Fold change /veh TMPRSS4 (11748680_a_at) / RFU FAM212B (11763350_a_at) / Fold change /veh FAM212B (11763350_a_at) / RFU PLEKHG5 (11743358_a_at) / Fold change /veh PLEKHG5 (11743358_a_at) / RFU ZSCAN30 (11745921_a_at) / Fold change /veh ZSCAN30 (11745921_a_at) / RFU CMKLR1 (11741424_a_at) / Fold change /veh CMKLR1 (11741424_a_at) / RFU LOC101060620 /// MAPK8IP1 (11723275_at) / Fold change /veh LOC101060620 /// MAPK8IP1 (11723275_at) / RFU SPTSSB (11747773_x_at) / Fold change /veh SPTSSB (11747773_x_at) / RFU PRSS12 (11739890_at) / Fold change /veh PRSS12 (11739890_at) / RFU BIN1 (11741810_x_at) / Fold change /veh BIN1 (11741810_x_at) / RFU WNT11 (11732464_a_at) / Fold change /veh WNT11 (11732464_a_at) / RFU C10orf10 (11716521_a_at) / Fold change /veh C10orf10 (11716521_a_at) / RFU C5orf56 (11738089_at) / Fold change /veh C5orf56 (11738089_at) / RFU CYB561 (11721691_x_at) / Fold change /veh CYB561 (11721691_x_at) / RFU ANKRD19P (11752326_a_at) / Fold change /veh ANKRD19P (11752326_a_at) / RFU OR2T12 /// OR2T33 /// OR2T8 (11738714_s_at) / Fold change /veh OR2T12 /// OR2T33 /// OR2T8 (11738714_s_at) / RFU VCAN (11748164_a_at) / Fold change /veh VCAN (11748164_a_at) / RFU JSRP1 (11732532_at) / Fold change /veh JSRP1 (11732532_at) / RFU KRTAP10-11 (11738290_x_at) / Fold change /veh KRTAP10-11 (11738290_x_at) / RFU MYO3A (11730013_a_at) / Fold change /veh MYO3A (11730013_a_at) / RFU EBF3 (11725865_a_at) / Fold change /veh EBF3 (11725865_a_at) / RFU CAMK2N1 (11719241_x_at) / Fold change /veh CAMK2N1 (11719241_x_at) / RFU C5orf56 (11738088_a_at) / Fold change /veh C5orf56 (11738088_a_at) / RFU OLFML3 (11715873_a_at) / Fold change /veh OLFML3 (11715873_a_at) / RFU LOC100653217 /// NTM (11731650_a_at) / Fold change /veh LOC100653217 /// NTM (11731650_a_at) / RFU MAPK11 (11762145_a_at) / Fold change /veh MAPK11 (11762145_a_at) / RFU FIZ1 (11724087_x_at) / Fold change /veh FIZ1 (11724087_x_at) / RFU OASL (11726364_x_at) / Fold change /veh OASL (11726364_x_at) / RFU SOX15 (11748057_x_at) / Fold change /veh SOX15 (11748057_x_at) / RFU CD79A (11719716_a_at) / Fold change /veh CD79A (11719716_a_at) / RFU HIST1H1D (11736915_at) / Fold change /veh HIST1H1D (11736915_at) / RFU CASKIN2 (11723855_a_at) / Fold change /veh CASKIN2 (11723855_a_at) / RFU LOC730098 (11760151_x_at) / Fold change /veh LOC730098 (11760151_x_at) / RFU OR4N2 (11742367_at) / Fold change /veh OR4N2 (11742367_at) / RFU PRRT2 (11749266_a_at) / Fold change /veh PRRT2 (11749266_a_at) / RFU SNX32 (11753110_a_at) / Fold change /veh SNX32 (11753110_a_at) / RFU CDHR5 (11726645_a_at) / Fold change /veh CDHR5 (11726645_a_at) / RFU RCAN1 (11760418_a_at) / Fold change /veh RCAN1 (11760418_a_at) / RFU FAM167A (11723789_a_at) / Fold change /veh FAM167A (11723789_a_at) / RFU FAM26E (11764081_at) / Fold change /veh FAM26E (11764081_at) / RFU ISYNA1 (11749810_s_at) / Fold change /veh ISYNA1 (11749810_s_at) / RFU ACY1 (11761880_at) / Fold change /veh ACY1 (11761880_at) / RFU 11764098_at / Fold change /veh 11764098_at / RFU SAMD14 (11745864_x_at) / Fold change /veh SAMD14 (11745864_x_at) / RFU NPB (11741838_a_at) / Fold change /veh NPB (11741838_a_at) / RFU TMPRSS6 (11731388_a_at) / Fold change /veh TMPRSS6 (11731388_a_at) / RFU KRTAP10-2 (11738614_at) / Fold change /veh KRTAP10-2 (11738614_at) / RFU ARHGAP8 /// PRR5-ARHGAP8 (11727945_x_at) / Fold change /veh ARHGAP8 /// PRR5-ARHGAP8 (11727945_x_at) / RFU KRTAP5-7 /// NADSYN1 (11734609_at) / Fold change /veh KRTAP5-7 /// NADSYN1 (11734609_at) / RFU RASL12 (11751679_a_at) / Fold change /veh RASL12 (11751679_a_at) / RFU CDKN2B (11736163_a_at) / Fold change /veh CDKN2B (11736163_a_at) / RFU PRF1 (11729649_at) / Fold change /veh PRF1 (11729649_at) / RFU, ZNF638 /// ZNF638-IT1 / Fold change vs veh, ZNF638 /// ZNF638-IT1 / RFU, PANK3 / Fold change vs veh, PANK3 / RFU, SH3YL1 / Fold change vs veh, SH3YL1 / RFU, ZEB2 / Fold change vs veh, ZEB2 / RFU, NRIP1 / Fold change vs veh, NRIP1 / RFU, PTTG1IP / Fold change vs veh, PTTG1IP / RFU, CAPN2 / Fold change vs veh, CAPN2 / RFU, MED14 / Fold change vs veh, MED14 / RFU, SNORA58 / Fold change vs veh, SNORA58 / RFU, C1orf63 / Fold change vs veh, C1orf63 / RFU, LRRFIP1 / Fold change vs veh, LRRFIP1 / RFU, NDUFAF7 / Fold change vs veh, NDUFAF7 / RFU, SLC12A2 / Fold change vs veh, SLC12A2 / RFU, IBTK / Fold change vs veh, IBTK / RFU, ESF1 / Fold change vs veh, ESF1 / Fold change vs veh, TMEM50B / RFU, TAOK1 / Fold change vs veh, TAOK1 / RFU, ACBD3 / Fold change vs veh, ACBD3 / RFU, TMA16 / Fold change vs veh, TMA16 / RFU, RWDD3 / Fold change vs veh, RWDD3 / RFU, BCAT1 / Fold change vs veh, BCAT1 / RFU, EDEM3 / Fold change vs veh, EDEM3 / RFU, TMEM33 / Fold change vs veh, TMEM33 / RFU, WDR75 / Fold change vs veh, WDR75 / RFU, AHCTF1 / Fold change vs veh, AHCTF1 / RFU, TFRC / Fold change vs veh, TFRC / RFU, ZDHHC17 / Fold change vs veh, ZDHHC17 / RFU, NOM1 / Fold change vs veh, NOM1 / RFU, ARL8B / Fold change vs veh, ARL8B / RFU, ZBTB11 / Fold change vs veh, ZBTB11 / RFU, TAMM41 / Fold change vs veh, TAMM41 / RFU, KIAA1704 /// LOC100996395 / Fold change vs veh, KIAA1704 /// LOC100996395 / RFU, ING1 / Fold change vs veh, ING1 / RFU, TRMT61B / Fold change vs veh, TRMT61B / RFU, FUBP3 / Fold change vs veh, FUBP3 / RFU, TP53 / Fold change vs veh, TP53 / RFU, TNKS2 / Fold change vs veh, TNKS2 / RFU, ZFP14 / Fold change vs veh, ZFP14 / RFU, ACTR2 / Fold change vs veh, ACTR2 / RFU, PPP3R1 / Fold change vs veh, PPP3R1 / RFU, PIK3R1 / Fold change vs veh, PIK3R1 / RFU, HNRNPA1 / Fold change vs veh, HNRNPA1 / RFU, RNF170 / Fold change vs veh, RNF170 / RFU, ZNF28 / Fold change vs veh, ZNF28 / RFU, RNGTT / Fold change vs veh, RNGTT / RFU, OGT / Fold change vs veh, OGT / RFU, BRD1 / Fold change vs veh, BRD1 / RFU, MARS / Fold change vs veh, MARS / RFU, ZNF655 / Fold change vs veh, ZNF655 / RFU, FAHD1 / Fold change vs veh, FAHD1 / RFU, BDP1 / Fold change vs veh, BDP1 / RFU, LRRCC1 / Fold change vs veh, LRRCC1 / RFU, ARID1A / Fold change vs veh, ARID1A / RFU, ZNF146 / Fold change vs veh, ZNF146 / RFU, ZNF330 / Fold change vs veh, ZNF330 / RFU, GPN3 / Fold change vs veh, GPN3 / RFU, C9orf123 / Fold change vs veh, C9orf123 / RFU, N4BP2L2 / Fold change vs veh, N4BP2L2 / RFU, ARFIP1 / Fold change vs veh, ARFIP1 / RFU, FAM179B / Fold change vs veh, FAM179B / RFU, BCL10 / Fold change vs veh, BCL10 / RFU, UHRF1BP1L / Fold change vs veh, UHRF1BP1L / RFU, BET1 / Fold change vs veh, BET1 / RFU, CNOT2 / Fold change vs veh, CNOT2 / RFU, ZNF268 / Fold change vs veh, ZNF268 / Fold change vs veh, ZNF507 / RFU, DGCR2 / Fold change vs veh, DGCR2 / RFU, WDSUB1 / Fold change vs veh, WDSUB1 / Fold change vs veh, HSP90B1 /// MIR3652 / RFU, ADSS / Fold change vs veh, ADSS / RFU, GK / Fold change vs veh, GK / RFU, ZNF148 / Fold change vs veh, ZNF148 / RFU, TAF9 / Fold change vs veh, TAF9 / RFU, SLC1A5 / Fold change vs veh, SLC1A5 / RFU, SLMO2 / Fold change vs veh, SLMO2 / RFU, ABCC4 / Fold change vs veh, ABCC4 / RFU, LOC101060439 /// RAP1B / Fold change vs veh, LOC101060439 /// RAP1B / RFU, RFX7 / Fold change vs veh, RFX7 / RFU, GTPBP10 / Fold change vs veh, GTPBP10 / RFU, CNEP1R1 / Fold change vs veh, CNEP1R1 / RFU, BIVM-ERCC5 /// ERCC5 / Fold change vs veh, BIVM-ERCC5 /// ERCC5 / RFU, ILF3 / Fold change vs veh, ILF3 / RFU 11762660_at / Fold change /veh 11762660_at / RFU VCAN (11757783_s_at) / Fold change /veh VCAN (11757783_s_at) / RFU DDX43 (11728927_at) / Fold change /veh DDX43 (11728927_at) / RFU KRT8 (11758188_x_at) / Fold change /veh KRT8 (11758188_x_at) / RFU NKD1 (11759106_at) / Fold change /veh NKD1 (11759106_at) / RFU SRD5A1 (11742802_a_at) / Fold change /veh SRD5A1 (11742802_a_at) / RFU TPSAB1 /// TPSB2 (11721975_s_at) / Fold change /veh TPSAB1 /// TPSB2 (11721975_s_at) / RFU GSTM3 (11746129_a_at) / Fold change /veh GSTM3 (11746129_a_at) / RFU IL23R (11737362_x_at) / Fold change /veh IL23R (11737362_x_at) / RFU TMEM51 (11727254_a_at) / Fold change /veh TMEM51 (11727254_a_at) / RFU PIWIL2 (11732686_x_at) / Fold change /veh PIWIL2 (11732686_x_at) / RFU ORM1 (11744905_x_at) / Fold change /veh ORM1 (11744905_x_at) / RFU CCDC152 (11743942_at) / Fold change /veh CCDC152 (11743942_at) / RFU ECM1 (11717891_a_at) / Fold change /veh ECM1 (11717891_a_at) / RFU IL23R (11748794_a_at) / Fold change /veh IL23R (11748794_a_at) / RFU TNFAIP8L3 (11732012_x_at) / Fold change /veh TNFAIP8L3 (11732012_x_at) / RFU MBOAT4 (11741988_at) / Fold change /veh MBOAT4 (11741988_at) / RFU 11764193_at / Fold change /veh 11764193_at / RFU TMEM53 (11763286_at) / Fold change /veh TMEM53 (11763286_at) / RFU MAGEB2 (11727129_at) / Fold change /veh MAGEB2 (11727129_at) / RFU TMEM200A (11744735_a_at) / Fold change /veh TMEM200A (11744735_a_at) / RFU CCDC152 (11751479_a_at) / Fold change /veh CCDC152 (11751479_a_at) / RFU FAM211A (11726209_a_at) / Fold change /veh FAM211A (11726209_a_at) / RFU RGS16 (11746705_a_at) / Fold change /veh RGS16 (11746705_a_at) / RFU VCAN (11755009_s_at) / Fold change /veh VCAN (11755009_s_at) / RFU RHOB (11743442_s_at) / Fold change /veh RHOB (11743442_s_at) / RFU RGS16 (11720943_a_at) / Fold change /veh RGS16 (11720943_a_at) / RFU RGS16 (11720944_at) / Fold change /veh RGS16 (11720944_at) / RFU, VPS4B / Fold change vs veh, VPS4B / RFU, CREB1 / Fold change vs veh, CREB1 / RFU, DNAJC13 / Fold change vs veh, DNAJC13 / RFU, GNAQ / Fold change vs veh, GNAQ / RFU, CDK5R1 / Fold change vs veh, CDK5R1 / RFU, ZRANB3 / Fold change vs veh, ZRANB3 / RFU, CUL4A / Fold change vs veh, CUL4A / RFU, CCNY / Fold change vs veh, CCNY / RFU, UFL1 / Fold change vs veh, UFL1 / RFU, COG3 / Fold change vs veh, COG3 / RFU, DIAPH2 / Fold change vs veh, DIAPH2 / RFU, SKA2 / Fold change vs veh, SKA2 / RFU, AFF3 / Fold change vs veh, AFF3 / RFU, LMF1 / Fold change vs veh, LMF1 / RFU, IPO11 / Fold change vs veh, IPO11 / RFU, DFFB / Fold change vs veh, DFFB / RFU, FOXP1 / Fold change vs veh, FOXP1 / RFU, CARD8 / Fold change vs veh, CARD8 / RFU, STRN3 / Fold change vs veh, STRN3 / RFU, ADK / Fold change vs veh, ADK / RFU, RASSF2 / Fold change vs veh, RASSF2 / RFU, WIPF1 / Fold change vs veh, WIPF1 / RFU, LARP1B / Fold change vs veh, LARP1B / RFU, RASA1 / Fold change vs veh, RASA1 / RFU, RB1 / Fold change vs veh, RB1 / RFU, PPFIA1 / Fold change vs veh, PPFIA1 / RFU, MAT2A / Fold change vs veh, MAT2A / RFU, CCT5 / Fold change vs veh, CCT5 / RFU, WDR92 / Fold change vs veh, WDR92 / RFU, CUX1 / Fold change vs veh, CUX1 / RFU, TTC7A / Fold change vs veh, TTC7A / RFU, TMEM135 / Fold change vs veh, TMEM135 / RFU, DEPTOR / Fold change vs veh, DEPTOR / RFU, CPM / Fold change vs veh, CPM / RFU, DNAJB6 / Fold change vs veh, DNAJB6 / RFU, CACNA2D3 / Fold change vs veh, CACNA2D3 / RFU, DTX4 / Fold change vs veh, DTX4 / RFU, TFCP2 / Fold change vs veh, TFCP2 / RFU, GMCL1 /// GMCL1P1 / Fold change vs veh, GMCL1 /// GMCL1P1 / RFU, AEBP2 / Fold change vs veh, AEBP2 / RFU, SNHG1 /// SNORD22 /// SNORD25 /// SNORD26 /// SNORD27 /// SNORD28 /// SNORD29 /// SNORD31 / Fold change vs veh, SNHG1 /// SNORD22 /// SNORD25 /// SNORD26 /// SNORD27 /// SNORD28 /// SNORD29 /// SNORD31 / Fold change (Aza/veh), C12orf56 (ProbeSet 11735607_a_at) / Fold change (ACY-1035/veh), C12orf56 (ProbeSet 11735607_a_at) / Fold change (Aza/veh), FGFR1OP (ProbeSet 11751329_s_at) / Fold change (ACY-1035/veh), FGFR1OP (ProbeSet 11751329_s_at) / Fold change (Aza/veh), VPS36 (ProbeSet 11739960_a_at) / Fold change (ACY-1035/veh), VPS36 (ProbeSet 11739960_a_at) / RFU SYPL1 (11715823_x_at) / Fold change /veh SYPL1 (11715823_x_at) / RFU IGFBP7 (11715501_s_at) / Fold change /veh IGFBP7 (11715501_s_at) / RFU REEP3 (11722064_at) / Fold change /veh REEP3 (11722064_at) / RFU IGLL1 (11728026_x_at) / Fold change /veh IGLL1 (11728026_x_at): dose or concentration left out as unconfirmed
Settings: ProbeSet 11723475_a_at; LIST B

`Nc1ccc(-c2cccs2)cc1NC(=O)c1ccc2c(c1)cc(C1CC1)n2CCN1CCOCC1` [ACY-1035] was tested, and the “Fold change vs veh, TRMT61B” value was 0.88.
